Source: patent US7507718B2, “Polymyxin B analogs for LPS detoxification” (Sanofi Pasteur, priority 2005, dated 2009)
Several values for one entry are separate records, joined by “and”; a condition that tells them apart may be missing. Identical values can stand only once. Bridge positions count the residues as written; N and C are the ends. Peptide text beside a SMILES is read from it. I, II: the chains in the order shown.

Legend:
[1] = test system: N. meningitidis strain used for LPS production; test: Serum bactericidal activity (SBA) of sera of immunized rabbits; format: in vivo; details: individual rabbits
Protocol: Immunization of three adult New-Zealand rabbits is performed with 100 μg of LPS-peptide complex by intramuscular (IM) and subcutaneous (SC) routes (2×0.5 mL and 5×0.2 mL respectively) in the presence of adjuvant. They receive three injections at 3-week interval; the first one with complete Freund adjuvant (FA), the second and third ones with incomplete Freund adjuvant. They are bled two weeks after the last injection. A control group is immunized with the peptide with adjuvant (71 μg, equivalent to the amount of the peptide in 100 μg of LPS-peptide complex) using the same protocol.
The bactericidal activity of the serum (SBA) samples is evaluated against the N. meningitidis strain used for LPS production as described in Example 5 in the presence of baby rabbit serum as exogenous source of complement.
Sera are heat-inactivated during 30 min at 56° C. In the wells of a 96-well microplate, heat-inactivated sera are then twofold serially diluted (10 times) in Dulbecco's phosphate buffered saline containing Ca^++ and Mg^++ (volume per well: 50 μl).
Twenty five μl of a log phase culture of N. meningitidis grown in Mueller-Hinton broth (4.10^3 CFU/mL) and 25 μl of baby rabbit serum are added to each well. The plate is incubated one hour at 37° C., under shaking.
Fifty μl of the mixture from each well are plated onto Mueller-Hinton agar. Petri dishes are incubated overnight at +37° C. in a 10% CO2 atmosphere.
In each experiment, controls include (i) bacteria and the complement source without antibodies (complement control), (ii) bacteria and heat-inactivated complement, and (iii) bacteria and heat-inactivated complement, in the presence of antibodies.
Bactericidal titre is reported as the highest reciprocal serum dilution at which ≧50% killing of bacteria is observed as compared to the complement control.

IL6 release = test: In vivo cytokine release in sera of CD1 mice (ELISA): IL6; set-up: species or system mouse
Protocol: (§1) In order to evaluate to which extent the LPS-peptide complex can attenuate LPS-induced toxic effects, the effect of the LPS-peptide complex on the release of pro-inflammatory cytokines is monitored (assessed) in in vitro and in vivo assays. • In vivo: cytokine (IL6 and TNFα) releases in the sera of mice immunized either with LPS or LPS-peptide complex are compared by ELISA. Blood samples are recovered 90 min after SC immunization, which is the optimal time for the release of those cytokines. C3H/HeOuJ, TLR4-/-, C3H/HeN and CD1 mouse strains are tested. The two first are sensitive neither to LPS nor LPS-peptide complex. The third and fourth are both found LPS-sensitive. CD1 mice are found more LPS-peptide complex-sensitive than the others and therefore selected for further experiments retaining the most severe conditions. • In vitro:cytokine (IL6, IL8 and TNFα) releases from human whole blood cell cultures stimulated for 24h at 37° C., with different concentrations of LPS or LPS-peptide complex are compared. 5.4.1. In Vivo Assay
(§2) CD1 mice are administered subcutaneously (SC) (i) either 10 μg of LPS or (ii) 10 μg of LPS-peptide complex. They are bled 90 minutes after injection. IL6 and TNFα releases are measured in the sera by ELISA. […]
(§3) The reaction is stopped by adding 100 μl of 1 M H3PO4 per well. Plates are read at 450 nm.

TNFα release = test: In vivo cytokine release in sera of CD1 mice (ELISA): TNFα; set-up: species or system mouse
Protocol: as §1, §2, §3

[2] = 10 μg SC, sera 90 minutes after injection

With `CC(C)C[C@@H]1NC(=O)[C@H](CC(C)C)NC(=O)[C@H](CC(C)C)NC(=O)[C@H](Cc2ccccc2)NC(=O)[C@H](CCCCN)NC(=O)[C@@H](NC(=O)[C@H](CCCCN)NC(=O)[C@@H](NC(=O)[C@@H](N)CCCCN)[C@@H](C)O)CSSC[C@@H](C(=O)O)NC(=O)[C@H](CC(C)C)NC(=O)[C@H](CC(C)C)NC(=O)[C@H](CC(C)C)NC(=O)[C@H](Cc2ccccc2)NC(=O)[C@H](CCCCN)NC(=O)[C@@H](NC(=O)[C@H](CCCCN)NC(=O)[C@@H](NC(=O)[C@@H](N)CCCCN)[C@@H](C)O)CSSC[C@@H](C(=O)O)NC1=O` [Peptide, NH2-Lys-Thr-Lys-Cys1-Lys-Phe-Leu-Leu-Leu-Cys2-COOH] (I: H-KTKCKFLLLC-OH / II: H-KTKCKFLLLC-OH; disulfide I:4-II:10, I:10-II:4) the “SBA titre, Pre-immunized sera” value ([1]; baseline before immunization, baby rabbit complement) was 4 and 16, the “SBA titre, Post-dose 3 immunized sera” value ([1]; 100 μg complex or 71 μg peptide IM+SC with Freund adjuvant, three injections) was 16 and the “SBA titre, Post-dose 3 immunized sera adsorbed on LPS” value ([1]; sera adsorbed on LPS) was 4 and 8. The “IL6 release, Mean (pg/mL) n = 6 (log)” value (IL6 release; [2]) was <1 pg/mL (log), the “Induction of IL6 (in words)” value (IL6 release; peptide alone) was “does not induce” and the “TNFα release, Mean (pg/mL) n = 6 (log)” value (TNFα release; [2]) was <1 pg/mL (log). For the same molecule, the “Induction of TNFα (in words)” value (TNFα release; peptide alone) was “does not induce”.
